In patent US20070037788A1, “Tricyclic steroid hormone nuclear receptor modulators” (Eli Lilly and Company, priority 2003, published 2007):
Where a name gives a salt, the structure may show the parent alone.

Molecular target: T1, human MR (Homo sapiens, UniProt P08235)
T1 construct: The full length human MR gene is cloned from a human kidney or human brain cDNA library; made in house; host or cells: SF9 insect cells (baculovirus)
T1 sequence (P08235 1-984): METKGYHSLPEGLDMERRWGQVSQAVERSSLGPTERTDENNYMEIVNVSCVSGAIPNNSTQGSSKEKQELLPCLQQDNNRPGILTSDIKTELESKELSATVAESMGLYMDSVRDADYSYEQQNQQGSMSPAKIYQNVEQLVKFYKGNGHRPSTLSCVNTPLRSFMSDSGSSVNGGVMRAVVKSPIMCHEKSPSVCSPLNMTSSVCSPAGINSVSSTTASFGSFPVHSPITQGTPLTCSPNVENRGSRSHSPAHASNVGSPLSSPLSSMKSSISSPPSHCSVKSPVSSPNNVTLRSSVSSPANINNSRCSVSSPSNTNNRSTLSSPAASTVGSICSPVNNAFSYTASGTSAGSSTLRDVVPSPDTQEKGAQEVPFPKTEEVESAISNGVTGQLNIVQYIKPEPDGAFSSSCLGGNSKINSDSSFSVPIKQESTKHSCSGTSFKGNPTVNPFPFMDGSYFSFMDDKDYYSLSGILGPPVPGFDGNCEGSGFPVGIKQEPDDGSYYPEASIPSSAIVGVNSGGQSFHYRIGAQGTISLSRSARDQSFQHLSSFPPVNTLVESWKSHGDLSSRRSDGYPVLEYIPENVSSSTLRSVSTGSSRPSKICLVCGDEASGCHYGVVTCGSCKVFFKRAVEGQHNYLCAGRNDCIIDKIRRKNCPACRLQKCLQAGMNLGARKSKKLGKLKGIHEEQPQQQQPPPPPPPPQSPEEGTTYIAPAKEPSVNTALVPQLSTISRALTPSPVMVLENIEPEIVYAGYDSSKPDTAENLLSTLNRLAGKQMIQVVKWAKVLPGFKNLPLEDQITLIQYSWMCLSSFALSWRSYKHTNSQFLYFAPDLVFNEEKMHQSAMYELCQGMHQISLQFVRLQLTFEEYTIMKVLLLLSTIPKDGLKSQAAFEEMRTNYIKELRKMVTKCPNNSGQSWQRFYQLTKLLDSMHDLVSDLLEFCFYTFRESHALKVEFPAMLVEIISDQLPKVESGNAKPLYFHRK
Test: Mineralocorticoid Receptor Binding Assay (Method 1)
Conditions: [3H]-aldosterone
Procedure: The full length human MR gene is cloned from a human kidney or human brain cDNA library. Briefly, using synthetic oligonucleotide primers (Eli Lilly and Company, Indianapolis) directed to nucleotides 20-54 and 3700-3666 of the human MR, polymerase chain reaction (PCR) is performed under standard conditions using a human cDNA library. The PCR reaction is performed in a final volume of 50 μl containing about 1 μl of a 50× stock solution of polymerase; about 1 μl of a 50× stock solution of DNTP; about 5 μl of an appropriate PCR buffer; about 1 μl of each primer; about 5 μl of a H. kidney or H. brain cDNA library; and about 36 μl of water. The reaction is allowed to denature for about 30 seconds at 95 degrees Celsius, anneal for about 30 seconds at 55 degrees Celsius, and extend for about 5 minutes at 72 degrees Celsius, the sequence being repeated for a total of about 35 cycles. The desired PCR product (3.68 Kb) is confirmed by gel electrophoresis and subsequently cut from the gel and stored at about −20 degrees Celsius until extraction. To extract the cDNA product from the agarose gel, the QIAEX II Gel Extraction protocol (QIAGEN, Inc.) is employed according to the manufacturer's instructions. Following extraction, the MR cDNA is cloned into an appropriate cloning vector (Zero Blunt TOPO PCR Cloning Kit (Invitrogen, Inc.) and a pAcHLT-baculovirus transfer vector (B.D./Pharminogen), then expressed in SF9 insect cells, essentially according to manufacturer's instructions. Sf9 cells are grown at a scale where gram quantity cell pellets are obtained for subsequent use in the MR binding assay. Harvested cell pellets are lysed by repeated freeze-thaw cycles (about 4) in a suitable lysis buffer then centrifuged at about 1×10^3 G (with the supernatant being saved for future assays).
MR binding assays are performed in a final total volume of about 250 μl containing about 20-25 μg of protein and 0.5 nM of [^3H]-aldosterone plus varying concentrations of test compound or vehicle. The assay binding buffer consists of 30 mM sodium molybdate, 30 mM of TRIS-HCl, 5 mM sodium phosphate, 5 mM sodium pyrophosphate, and about 10% glycerol, pH=7.5.
Briefly, assays are prepared at RT in 96-well Falcon 3072 plates, each well containing 210 μl of binding buffer, 10 μl of [^3H]-aldosterone, 10 μl of test compound/vehicle, and 20 μl of the resuspended receptor protein extract. Incubations are carried out at 4 degrees Celsius with shaking for about 16 hours. 200 μl aliquots of each incubation are filtered onto Millipore HA 0.45 micron 96-well filter plates, pre-moistened with cold 30 mM TRIS-HCl. The filter plates are suctioned dry with vacuum and immediately washed 3× with cold 30 mM TRIS-HCl. The plates are then punched out and the amount of receptor-ligand complex is determined by liquid scintillation counting using 4 ml of Ready Protein Plus™ liquid scintillation cocktail.

Ki, < 500 nM:
CC(C)(CN1CCOCC1)n1c(=O)[nH]c2cc(/C=C3\c4ccccc4COc4cc(F)ccc43)ccc21 [Example 1, 1-(1,1-Dimethyl-2-morpholin-4-yl-ethyl)-5-(3-fluoro-6H-dibenzo[b,e]oxepin-11-ylidenemethyl)-1,3-dihydro-benzoimidazol-2-one, E isomer]
CN1CCC(n2c(=O)[nH]c3cc(/C=C4/c5ccc(F)cc5OCc5c(F)cccc54)ccc32)CC1 [Example 2, 5-(3,7-Difluoro-6H-dibenzo[b,e]oxepine-11-ylidenemethyl)-1-(1-methyl-piperidin-4-yl)-1,3-dihydro-benzoimidazol-2-one, E-isomer]
CN1CCC(n2c(=O)[nH]c3cc(/C=C4\c5ccccc5COc5cc(F)ccc54)ccc32)CC1 [Example 3, 5-(3-Fluoro-6H-dibenzo[b,e]oxepin-11-ylidenemethyl)-1-(1-methyl-piperidin-4-yl)-1,3-dihydro-benzoimidazol-2-one, E isomer]
CN1CCC(n2c(=O)[nH]c3cc(/C=C4\c5ccc(F)cc5COc5cc(F)ccc54)ccc32)CC1 [Example 4, 5-(3,8-Difluoro-6H-dibenzo[b,e]oxepin-11-ylidenemethyl)-1-(1-methyl-piperidin-4-yl) -1,3-dihydro-benzoimidazol-2-one, E isomer]
CCN1CC[C@@H](n2c(=O)[nH]c3cc(/C=C4\c5ccc(F)cc5COc5cc(F)ccc54)ccc32)C1 [Example 5, 5-(3,8-Difluoro-6H-dibenzo[b,e]oxepin-11-ylidenemethyl)-1-(1-ethyl-pyrrolidin-3-yl) -1,3-dihydro-benzoimidazol-2-one, HOAc salt, E isomer, chiral]
CN1CCN(CCCn2c(=O)[nH]c3cc(/C=C4\c5ccccc5COc5cc(F)ccc54)ccc32)CC1 [Example 7]
CN1CCN(CCn2c(=O)[nH]c3cc(/C=C4\c5ccccc5COc5cc(F)ccc54)ccc32)CC1 [Example 8]
O=c1[nH]c2cc(/C=C3\c4ccccc4COc4cc(F)ccc43)ccc2n1[C@H]1CCNC1 [Example 9]
C[C@H](CN1CCOCC1)n1c(=O)[nH]c2cc(/C=C3\c4ccccc4COc4cc(F)ccc43)ccc21 [Example 10]
C[C@@H](CN1CCOCC1)n1c(=O)[nH]c2cc(/C=C3\c4ccccc4COc4cc(F)ccc43)ccc21 [Example 11]
O=c1[nH]c2cc(/C=C3\c4ccccc4COc4cc(F)ccc43)ccc2n1C1CCNCC1 [Example 12]
C[C@@H]1CN(CCn2c(=O)[nH]c3cc(/C=C4\c5ccccc5COc5cc(F)ccc54)ccc32)C[C@H](C)O1 [Example 13]
O=c1[nH]c2cc(/C=C3\c4ccccc4COc4cc(F)ccc43)ccc2n1CCN1CCNCC1 [Example 14]
O=c1[nH]c2cc(/C=C3\c4ccccc4COc4cc(F)ccc43)ccc2n1C1CCNC1 (centres unmarked) [Example 15]
O=c1[nH]c2cc(/C=C3\c4ccccc4COc4cc(F)ccc43)ccc2n1C1CCNC1 (centres unmarked) [Example 16]
O=c1[nH]c2cc(/C=C3\c4ccccc4COc4cc(F)ccc43)ccc2n1C1CNC1 [Example 17]
O=c1[nH]c2cc(/C=C3\c4ccccc4COc4cc(F)ccc43)ccc2n1C[C@@H]1CCCN1 [Example 18]
O=c1[nH]c2cc(/C=C3\c4ccccc4COc4cc(F)ccc43)ccc2n1C[C@H]1CCCN1 [Example 19]
CN1CCN(CCn2c(=O)[nH]c3cc(/C=C4\c5ccc(F)cc5COc5cc(F)ccc54)ccc32)CC1 [Example 20]
O=c1[nH]c2cc(/C=C3\c4ccc(F)cc4COc4cc(F)ccc43)ccc2n1CCN1CCCC1 [Example 21]
C[C@H](CN1CCOCC1)n1c(=O)[nH]c2cc(/C=C3\c4ccc(F)cc4COc4cc(F)ccc43)ccc21 [Example 22]
C[C@@H](CN1CCOCC1)n1c(=O)[nH]c2cc(/C=C3\c4ccc(F)cc4COc4cc(F)ccc43)ccc21 [Example 23]
CC(C)(CN1CCOCC1)n1c(=O)[nH]c2cc(/C=C3\c4ccc(F)cc4COc4cc(F)ccc43)ccc21 [Example 24]
C[C@@H]1CN(CCn2c(=O)[nH]c3cc(/C=C4\c5ccc(F)cc5COc5cc(F)ccc54)ccc32)C[C@H](C)O1 [Example 25]
O=c1[nH]c2cc(/C=C3\c4ccc(F)cc4COc4cc(F)ccc43)ccc2n1CCCN1CCOCC1 [Example 26]
O=c1[nH]c2cc(/C=C3\c4ccc(F)cc4COc4cc(F)ccc43)ccc2n1C1CCNCC1 [Example 28]
O=c1[nH]c2cc(/C=C3\c4ccc(F)cc4COc4cc(F)ccc43)ccc2n1[C@H]1CCNC1 [Example 29]
O=c1[nH]c2cc(/C=C3\c4ccc(F)cc4COc4cc(F)ccc43)ccc2n1C1CNC1 [Example 30]
O=c1[nH]c2cc(/C=C3\c4ccc(F)cc4COc4cc(F)ccc43)ccc2n1[C@@H]1CCNC1 [Example 31]
CN1CC[C@H](n2c(=O)[nH]c3cc(/C=C4\c5ccc(F)cc5COc5cc(F)ccc54)ccc32)C1 [Example 32]
CCN1CC[C@H](n2c(=O)[nH]c3cc(/C=C4\c5ccc(F)cc5COc5cc(F)ccc54)ccc32)C1 [Example 33]
CN1CCN(CCn2c(=O)[nH]c3cc(/C=C4/c5ccc(F)cc5OCc5c(F)cccc54)ccc32)CC1 [Example 34]
O=c1[nH]c2cc(/C=C3/c4ccc(F)cc4OCc4c(F)cccc43)ccc2n1CCN1CCCC1 [Example 35]
O=c1[nH]c2cc(/C=C3/c4ccc(F)cc4OCc4c(F)cccc43)ccc2n1C1CCNCC1 [Example 36]
O=c1[nH]c2cc(/C=C3/c4ccc(F)cc4OCc4c(F)cccc43)ccc2n1[C@H]1CCNC1 [Example 37]
C[C@H](CN1CCOCC1)n1c(=O)[nH]c2cc(/C=C3/c4ccc(F)cc4OCc4c(F)cccc43)ccc21 [Example 38]
C[C@@H](CN1CCOCC1)n1c(=O)[nH]c2cc(/C=C3/c4ccc(F)cc4OCc4c(F)cccc43)ccc21 [Example 39]
CC(C)(CN1CCOCC1)n1c(=O)[nH]c2cc(/C=C3/c4ccc(F)cc4OCc4c(F)cccc43)ccc21 [Example 40]
